# Measurements: patent EP2640377B1, “FGFR1 EXTRACELLULAR DOMAIN COMBINATION THERAPIES” (Five Prime Therapeutics, Inc., priority 2010, dated 2012)
# Like-named read-outs stand apart in the source and are kept apart here.
# How the values were obtained:
# [1] = test system: Human non-small cell lung cancer (NSCLC) cell line H1703; experiment: H1703 non-small cell lung cancer (NSCLC) xenograft model: tumor volume and body weight; format: in vivo, SCID mice; conditions: day 38
# Method: Human non-small cell lung cancer (NSCLC) cell line H1703 was used as the tumor model and was purchased from ATCC (Manassas, VA; Cat. No. CRL-5889).
# Docetaxel was purchased from Toronto Research Chemicals (North York, Ontario, Canada; cat. No. D494420) and formulated in H2O containing 5% Tween 80 and 5% glucose. Docetaxel was administered i.p. at 25 mg/kg (equivalent to about 75 mg/m^2 in a human) once every three weeks for two doses. In combination groups, FGFR1-ECD.339-Fc and docetaxel were either given concurrently or sequentially with FGFR1-ECD.339-Fc given one day before docetaxel or vice versa. Human albumin was purchased from Grifols USA (Los Angeles, CA; Cat. No. NDC 61953-0002-1), formulated in PBS at 3 mg/mL and was used as negative control at 300 µg/100 µL/mouse (15 mg/kg). Table 2: Dosing Schedule
# The tumor volume was measured by external caliper to determine the greatest longitudinal diameter (length) and the greatest transverse diameter (width). The tumor volume was then calculated using the following formula: Tumorvolume(mm^3) = (length × width^2)/2 [formula]
# Table 3. Tumor volume analysis on day 38
# Table 4. Analysis of fractional tumor volumea on day 38
# A549 cells = experiment: A549 non-small cell lung cancer (NSCLC) xenograft model: tumor volume and body weight; conditions: for Fractional tumor volume (FTV), agent alone: day 32
# [2] = test system: Squamous cell lung cancer cell line NCI-H520; conditions: for Fractional tumor volume (FTV), agent alone / Tumor growth inhibition (%) / Mean Tumor volume mm^3(±SD): day 49; for Tumor growth inhibition (%): alone or with FGFR1-ECD.339-Fc 15 mg/kg; for Mean Tumor volume mm^3(±SD): alone or with FGFR1-ECD.339-Fc 15 mg/kg i.p. 2x/wk
# Method: Six to eight week old female SCID mice were purchased from Charles River Laboratories (Wilmington, MA) and were acclimated for 1 week before the start of the study. […] The cells were cultured for three to four passages in RPMI+10% FBS + 1% L-glutamine at 37°C in a humidified atmosphere with 5% CO2. When the cultured cells reached 85-90% confluence, cells were harvested and resuspended in cold Ca^2+ and Mg^2+ free PBS containing 50% Matrigel at 3.5 x10^7 cells/ml. The cells were implanted subcutaneously over the right flank of the mice at 3.5x10^6 cells/100µl/mouse. One day after tumor implantation, mice were randomized according to body weight at 10 mice per group. Dosing for all groups began one day post tumor implantation.
# FGFR1-ECD.339-Fc was formulated in PBS at 3 mg/ml and administered intraperitoneally (i.p.) at 15 mg/kg (300 µg/100 µl/mouse) twice a week for six weeks. […] In combination groups, FGFR1-ECD.339-Fc and pemetrexed were administered on the same schedule as when given as single agents, and were administered concurrently on days 1, 4, 8, and 11.
# The tumor volume and body weight of the mice were monitored twice a week throughout study.
# The mice were euthanized by isoflurane inhalation and cervical dislocation.
# The tumor volume of each group of mice on day 49 was analyzed by one-way ANOVA followed by Tukey's test.
# [3] = FGFR1-ECD.339-Fc 15 mg/kg i.p. twice a week, docetaxel 25 mg/kg i.p. once every three weeks for two doses
# [4] = pemetrexed 62.5 mg/kg i.p. QD x 5 x 2 cycles
# [5] = pemetrexed 125 mg/kg i.p. QD x 5 x 2 cycles
# [6] = pemetrexed 250 mg/kg i.p. (only first five doses given)
smiles,measurement,setting,value
"CC(=O)O[C@@]12CO[C@@H]1C[C@H](O)[C@@]1(C)C(=O)[C@H](O)C3=C(C)[C@@H](OC(=O)[C@H](O)[C@@H](NC(=O)OC(C)(C)C)c4ccccc4)C[C@@](O)([C@@H](OC(=O)c4ccccc4)[C@H]21)C3(C)C [Docetaxel, 1,7β,10β-trihydroxy-9-oxo-5β,20-epoxytax-11-ene-2α,4,13α-triyl 4-acetate 2-benzoate 13-{(2R,3S)-3-[(tert-butoxycarbonyl)amino]-2-hydroxy-3-phenylpropanoate}]",Mean Tumor volume mm^3(±SD),[1]; [3],209 (±303) mm^3
same,Tumor growth inhibition (%),[1]; [3],74%
same,"Fractional tumor volume (FTV), agent alone","[1]; FGFR1-ECD.339-Fc 15 mg/kg, docetaxel 25 mg/kg, FTV = mean TV treated / mean TV control",0.25
same,"Fractional tumor volume (FTV), agent alone",A549 cells; docetaxel 3 mg/kg i.p. twice per week alone,0.79
same,"Fractional tumor volume (FTV), agent alone",A549 cells; docetaxel 10 mg/kg i.p. twice per week alone,0.58
"Nc1nc2[nH]cc(CCc3ccc(C(=O)N[C@@H](CCC(=O)O)C(=O)O)cc3)c2c(=O)[nH]1 [Pemetrexed, (S)-2-[4-[2-(4-amino-2-oxo-3,5,7-triazabicyclo[4.3.0]nona-3,8,10-trien-9-yl)ethyl]benzoyl] aminopentanedioic acid]","Fractional tumor volume (FTV), agent alone",[2]; pemetrexed 62.5 mg/kg alone,0.59
same,Tumor growth inhibition (%),[2]; [4],40%
same,Mean Tumor volume mm^3(±SD),[2]; [4],544.7 (±341.5) mm^3
same,"Fractional tumor volume (FTV), agent alone",[2]; pemetrexed 125 mg/kg alone,0.75
same,Tumor growth inhibition (%),[2]; [5],24%
same,Mean Tumor volume mm^3(±SD),[2]; [5],689.5 (±328.7) mm^3
same,"Fractional tumor volume (FTV), agent alone",[2]; pemetrexed 250 mg/kg alone,1.00
same,Tumor growth inhibition (%),[2]; [6],1%
same,Mean Tumor volume mm^3(±SD),[2]; [6],926.6 (±339.9) mm^3
same,tumor inhibition over the course of the study,"[2]; highest dose of pemetrexed (250 mg/kg), alone or with FGFR1-ECD.339-Fc",did not appear to inhibit tumor growth
"CC[C@]1(O)C[C@H]2CN(CCc3c([nH]c4ccccc34)[C@@](C(=O)OC)(c3cc4c(cc3OC)N(C=O)[C@H]3[C@@](O)(C(=O)OC)[C@H](OC(C)=O)[C@]5(CC)C=CCN6CC[C@]43[C@@H]65)C2)C1 [Vincristine, methyl (1R,9R,10S,11R,12R,19R)-11-(acetyloxy)-12-ethyl-4-[(13S,15S,17S)-17-ethyl-17-hydroxy-13-(methoxycarbonyl)-1,11-diazatetracyclo[13.3.1.0^4,12.0^5,10]nonadeca-4(12),5,7,9-tetraen-13-yl]-8-formyl-10-hydroxy-5-methoxy-8,16-diazapentacyclo[10.6.1.0^1,9.0^2,7.0^16,19]nonadeca-2,4,6,13-tetraene-10-carboxylate]",weight loss,"A549 cells; higher dose of vincristine (1.5 mg/kg), Figure 9C",lost weight
same,weight loss,"A549 cells; lower dose of vincristine (1 mg/kg), data not shown",did not lose weight
